Columns and labels:
[1] = tested on: HEPG2; assay: Cytotoxicity, liver cells; format: cell-based, human; conditions: human, HepG2 liver cells
[2] = Airway hyperresponsiveness (sRaw) to methacholine in ovalbumin asthma model; format: in vivo, ova s/c BALB/c mice; conditions: oral gavage, 100 mg/kg twice daily for 5 days, methacholine challenge
Procedure: Compounds described herein may reduce airway hyperresponsiveness in animal models of asthma. Therefore, mice may be sensitized three times with intra-peritoneal (i.p.) injections of 2 mg/kg/d of ovalbumin (Ova) emulsified in […] on days 0, 7 and 14 in a total volume of 100 μL. In addition, mice may be challenged intra-nasally (i.n.) with 1 mg/kg/d Ova for 5 days from days 23-27. Control mice may be sensitized with Ova and challenged with saline. The airway hyperresponsiveness measurements may be carried out with DSI's Buxco® FinePointe Non-Invasive Airway Mechanics (NAM) instrument consisting of a nasal chamber in combination with the thoracic chamber that allows the computation of specific airway resistance (sRaw). Treated conscious, spontaneously breathing Ova S/C mice may be exposed to aerosolized phosphate buffered saline (PBS) (for the baseline measurement) or methacholine (1.5625-12.5 mg/mL) for 1 minute and readings (sRaw) may be taken and averaged for 3 minutes after each nebulization.
Drug treatment protocol: Sterile solutions of compounds were prepared in 2% hydroxypropyl methylcellulose solution (Sigma-Aldrich, St. Louis, Mo.) and 2.5% polyethylene glycol (Sigma Aldrich, St. Louis, Mo.) for oral administration in a biological safety cabinet. A fine suspension was obtained by grinding the mixture with a mortar and pestle. Drugs were administered individually at 100 mg/kg by oral gavage (200 ul) with 20G gavage needles (Kent Scientific Corporation, Torrington Conn.) to groups of ova s/c BALB/c twice daily for 5 days during the ova challenge period. Mice received a single p.o. dose of the compounds just before airway parameter measurements. Compounds for i.p. injection were prepared in 10% DMSO, 40% propylene glycol, and 50% PBS and given as 100 ul injection. Mice were monitored daily after drug administration. Assessment of Airway hyper-responsiveness: Airway hyper-responsiveness to methacholine in conscious, spontaneously breathing animals was measured by DSI's Buxco® FinePointe Non-Invasive Airway Mechanics (NAM) instrument. Before measurements were taken, mice were acclimated to the chambers 15 minutes daily for 5 days. In addition, an ovalbumin sensitization and challenge protocol consists of randomized male BALB/c mice that were sensitized three times with intra-peritoneal (i.p.) injections of 2 mg/kg/d of ovalbumin (Ova) (Sigma-Aldrich, St. Louis, Mo.) emulsified in 2 mg of Alum (Imject Alum; Thermo Scientific, Pierce, Rockford, Ill.) on days 0, 7 and 14 in a total volume of 100 μL. The mice were then challenged intra-nasally (i.n.) with 1 mg/kg/d Ova for 5 days from days 23-27. Control mice were sensitized with Ova and challenged with saline. The chambers were also calibrated each time before data collection. Briefly, the nasal chamber in combination with the thoracic chamber allows the computation of specific airway resistance (sRaw). The FinePointe software computes specific airway resistance (sRaw) with all other ventilatory parameters derived by the NAM analyzer. Mice were exposed to aerosolized PBS (for the baseline measurement) or methacholine (1.5625-12.5 mg/mL) for 1 minute and readings were taken and averaged for 3 minutes after each nebulization. Data obtained were presented as sRaw versus the methacholine concentration (mg/mL) used to generate the aerosol. FIG. 5A-5F show compound effects on airway hyperresponsiveness. Specific airway resistance (sRaw) was measured at increasing dosages of methacholine by a DSI's Buxco FinePointe non-invasive airway mechanics instrument. Ova s/c BALB/c mice were administered all compounds via oral gavage, 100 mg/kg twice daily for 5 days. Data represent mean±SEM from 10 mice in each group. *, **, and *** indicate p<0.05, p<0.01, p<0.001 significance, respectively, compared to vehicle treated ova s/c BALB/c mice.

[3] = Pharmacokinetic analysis in blood, lungs and brain; conditions: mouse, 25 mg/kg oral gavage
[4] = Microsomal stability, human liver microsomes; format: in vitro ADME; conditions: 10 μM compound
Procedure: (§1) The metabolic stability of compounds in vivo can be estimated with the stability of compounds in the presence of liver microsomes. Therefore, 4 μL of 1 mM DMSO solution of test compound at a final concentration of 10 μM were preincubated at 37° C. for 5 minutes on a digital heating shaking dry bath (Fischer scientific, Pittsburgh, Pa.) in a mixture containing 282 μL of water, 80 μL of phosphate buffer (0.5 M, pH 7.4) 20 μL of NADPH Regenerating System Solution A (BD Bioscience, San Jose, Calif.) and 4 μL of NADPH Regenerating System Solution B (BD Bioscience, San Jose, Calif.) in a total volume of 391.2 μL. Following preincubation, the reaction was initiated by addition of 8.8 μL of either human liver microsomes (BD Gentest, San Jose, Calif.) or mouse liver microsomes (Life technologies, Rockford, Ill.) at a protein concentration of 0.5 mg/mL. Aliquots of 50 μL were taken at time intervals of 0 (without microsomes), 10, 20, 30, 40, 50 and 60 minutes. Each aliquot was added to 100 μL of cold acetonitrile solution containing 1 μM of verapamil HCL as internal standard. This was followed by sonication for 10 seconds and centrifugation at 10,000 rpm for 5 minutes. 100 μL of the supernatant was transferred into Spin-X HPLC filter tubes (Corning Incorporated, NY) and centrifuged at 13,000 rpm for 5 minutes. The filtrate was diluted 100-fold and subsequently analyzed by LC-MS/MS with Shimadzu LCMS 8040, (Shimadzu Scientific Instruments, Columbia, Md.). The ratio of the peak areas of the internal standard and test compound was calculated for every time point and the natural log of the ratio were plotted against time to determine the linear slope (k). The metabolic rate (k*C0/C), half-life (0.693/k), and […] (V*k) were calculated, where k is the slope, C0 is the initial concentration of test compound, C is the concentration of microsomes, and V is the volume of incubation in μL per microsomal protein in mg. All experiments were repeated two time in triplicates.

[5] = Microsomal stability, mouse liver microsomes; format: in vitro ADME; conditions: 10 μM compound
Procedure: as §1

| SMILES | LD50 HEPG2 (Liver) [1] [µM] | airway hyperresponsiveness (sRaw) [2] | bioavailability [3] | HLM % remaining after 60 min [4] [%] | MLM % remaining after 60 min [5] [%] |
| --- | --- | --- | --- | --- | --- |
| C[C@H]1N=C(c2ccccc2F)c2cc(Br)ccc2-n2cnc(C(=O)O)c21 [GL-II-93, (R)-8-bromo-6-(2-fluorophenyl)-4-methyl-4H-benzo[f]imidazo[1,5-a][1,4]diazepine-3-carboxylic acid] | >400 | reduced airway hyperresponsiveness at one or multiple concentrations of methacholine | excellent bioavailability | – | – |
| CCOC(=O)c1ncn2c1[C@@H]1CCCN1C(=O)c1cc(O)ccc1-2 [RJ-02-50, ethyl (S)-7-hydroxy-9-oxo-11,12,13,13a-tetrahydro-9H-benzo[e]imidazo[5,1-c]pyrrolo[1,2-a][1,4]diazepine-1-carboxylate] | >400 | reduced airway hyperresponsiveness at one or multiple concentrations of methacholine | excellent bioavailability | 91.7 ± 0.2 | 91.1 ± 0.1 |
| O=C1c2cc(O)ccc2-n2cnc(-c3cnco3)c2[C@@H]2CCCN12 [RJ-03-30, (S)-7-hydroxy-1-(oxazol-5-yl)-11,12,13,13a-tetrahydro-9H-benzo[e]imidazo[5,1-c]pyrrolo[1,2-a][1,4]diazepin-9-one] | >400 | not able to alleviate airway hyperresponsiveness | – | 91.8 ± 0.2 | 80.0 ± 0.3 |
| C#Cc1ccc2c(c1)C(c1ccccc1F)=N[C@H](C)c1c(C(=O)O)ncn1-2 [SH-053-2′F-R-CH3-Acid, (R)-8-ethynyl-6-(2-fluorophenyl)-4-methyl-4H-benzo[f]imidazo[1,5-a][1,4]diazepine-3-carboxylic acid] | >400 | reduced airway hyperresponsiveness at one or multiple concentrations of methacholine | excellent bioavailability | 92.0 ± 0.2 | 89.0 ± 0.3 |

Reference: patent US11447495B2, “Substituted benzo[f]imidazo[1,5-a][1,4]diazepines as GABA(a) receptor modulators” (priority 2016, dated 2022)
